From patent US20200113852A1, “METHODS OF PATIENT SELECTION AND TREATING TRXR- OR PRDX-OVEREXPRESSED CANCERS” (TRIACT THERAPEUTICS, INC., priority 2017, published 2020)

Legend:
[1] = target: T1, human recombinant glutathione S-transferase pi (GSTP1) (Homo sapiens, UniProt P09211); assay: In vitro Iniparib-glutathione conjugation; format: biochemical; details: 30 μM, 1 mM GSH
T1 construct: purchased Acris
Protocol: Online solid phase extraction (SPE) was performed using the fully automated Spark Holland Symbiosis™ (Emmen, The Netherlands) in eXtraction Liquid Chromatography (XLC) mode. The Symbiosis™ has previously been described in detail (18). HySphere™ C18 HD 7 μm SPE cartridges were used (Spark Holland). Each cartridge was initially conditioned with 2 ml methanol+0.5% formic acid (FA) and then equilibrated with 2 ml water+0.5% FA, both at flow-rates of 4 ml/min. Sample (25 μl) was aspirated and loaded onto the cartridge with 1 ml water+0.5% FA at a flow-rate of 1 ml/min. […] After elution, the right clamp was washed successively with 2 ml water+0.5% FA, 2 ml methanol+0.5% FA and 2 ml water+0.5% FA at 4 ml/min. […] The mobile phase composition was returned to starting conditions over 1 min and maintained during 6 min for column equilibration. The total run time was 27 min. Mass spectrometry was performed using the Thermo® TSQ Quantum Discovery Max in electrospray positive ionization mode (Thermo, US) with the following parameters: capillary voltage=4.0 kV, capillary temperature=300° C., sheath gas pressure=40, auxiliary gas pressure=5.

[2] = Phase I clinical trial GBM, safety, DLT and MTD
Text: It was a single arm, multi dose, dose escalating trial in newly diagnosed GBM patients. The total number of patients was 43, with about 5 patients per cohort. Patients who tolerated radiation (XRT) and temozolomide (TMZ) were recruited. Inclusion criteria included completion of XRT and TMZ without grade 3 or 4 toxicity and labs within acceptable range within 6 weeks of completing XRT. The end points included safety, maximum tolerated dose (MTD), and signal of activity.
Using modified continual reassessment method, MTD was defined for metronomic and standard dose TMZ.

[3] = Phase II clinical trial GBM, toxicity and tolerability
[4] = target: T2, TrxR1 and other protein targets in HCT116 cells (Homo sapiens, UniProt Q16881); details: 90-min preincubation of GSH-depleted HCT116 (auranofin 10 μM or Iniparib 100 μM)
T2 sequence (Q16881 1-499 isoform Q16881-5): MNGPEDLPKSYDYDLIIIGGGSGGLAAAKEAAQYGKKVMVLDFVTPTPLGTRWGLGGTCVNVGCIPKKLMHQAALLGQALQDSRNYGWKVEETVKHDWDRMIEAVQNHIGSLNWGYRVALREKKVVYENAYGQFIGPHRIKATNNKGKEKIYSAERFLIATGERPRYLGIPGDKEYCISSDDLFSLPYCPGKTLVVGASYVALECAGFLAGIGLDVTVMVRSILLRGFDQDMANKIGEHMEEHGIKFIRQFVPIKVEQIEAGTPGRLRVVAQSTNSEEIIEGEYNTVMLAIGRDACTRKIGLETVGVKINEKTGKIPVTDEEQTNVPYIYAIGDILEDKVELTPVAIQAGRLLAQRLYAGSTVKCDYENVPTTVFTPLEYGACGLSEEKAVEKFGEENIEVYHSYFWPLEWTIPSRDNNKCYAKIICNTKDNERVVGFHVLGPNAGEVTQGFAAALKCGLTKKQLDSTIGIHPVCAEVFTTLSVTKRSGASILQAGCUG
Protocol: TrxR1 immunoprecipitates (FIG. 17A) and cells extracts (FIG. 17B) were analysed by SDS-PAGE under reducing conditions followed by streptavidin-HRP blot and TrxR1 blot.
Clarified octyl-glucoside lysates (12 mg proteins) were combined with anti-TrxR1 or anti-TrxR2 monoclonal antibody coupled to protein G plus agarose (Santa Cruz Biotechnology) and mixed overnight at 4° C. Beads were recovered by centrifugation for 2 min at 1,000×g and extensively washed in octyl-glucoside lysis buffer. Precipitated complexes were eluted by incubating the beads for 20 min at 60° C. in SDS sample buffer. The amount of immunoprecipitated TrxR1 and TrxR2 was systematically checked by blots anti-TrxR1 and anti-TrxR2, respectively.

T1 sequence (P09211 whole entry): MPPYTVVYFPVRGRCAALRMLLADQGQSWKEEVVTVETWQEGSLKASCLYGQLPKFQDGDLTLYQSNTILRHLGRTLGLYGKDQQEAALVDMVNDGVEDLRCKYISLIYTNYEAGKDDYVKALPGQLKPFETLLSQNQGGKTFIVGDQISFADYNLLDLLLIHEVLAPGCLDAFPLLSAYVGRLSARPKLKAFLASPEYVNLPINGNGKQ

Structure (SMILES): NC(=O)c1ccc(I)c([N+](=O)[O-])c1 [Iniparib, 4-iodo-3-nitrobenzamide]
- reaction with GSH ([1]; absence of GSTP1): did not react
- conversion of Iniparib to Iniparib-GS ([1]; recombinant GSTP1 added): complete conversion
- Phase 2 dose defined ([2]; IV 2×/wk with metronomic TMZ): 8.6 mg/kg
- Phase 2 dose defined ([2]; IV 2×/wk with standard TMZ): 8 mg/kg
- Acute kidney injury ([3]; Grade 3): 1 (1) N (%)
- Anemia ([3]; Grade 3): 2 (2) N (%)
- Atrial fibrillation ([3]; Grade 3): 1 (1) N (%)
- Bronchial infection ([3]; Grade 3): 1 (1) N (%)
- Cognitive disturbance ([3]; Grade 3): 1 (1) N (%)
- Confusion ([3]; Grade 3): 1 (1) N (%)
- Dehydration ([3]; Grade 3): 1 (1) N (%)
- Dizziness ([3]; Grade 3): 1 (1) N (%)
- Dysphasia ([3]; Grade 3): 1 (1) N (%)
- Fatigue ([3]; Grade 3): 4 (5) N (%)
- Generalized muscle weakness ([3]; Grade 3): 2 (2) N (%)
- Headache ([3]; Grade 3): 1 (1) N (%)
- Hyperkalemia ([3]; Grade 3): 1 (1) N (%)
- Hypokalemia ([3]; Grade 3): 1 (1) N (%)
- Hypotension ([3]; Grade 3): 1 (1) N (%)
- Hypoxia ([3]; Grade 3): 1 (1) N (%)
- Lymphocyte count decreased ([3]; Grade 3): 4 (5) N (%)
- Nausea ([3]; Grade 3): 2 (2) N (%)
- Neutrophil Count Decreased ([3]; Grade 3): 3 (4) N (%)
- Platelet Count Decreased ([3]; Grade 3): 4 (5) N (%)
- Rash maculo-papular ([3]; Grade 3): 3 (4) N (%)
- Skin and subcutaneous tissue disorders ([3]; Grade 3): 1 (1) N (%)
- Vomiting ([3]; Grade 3): 1 (1) N (%)
- White Blood Cell Decreased ([3]; Grade 3): 5 (6) N (%)
- Alanine aminotransferase increased ([3]; Grade 4): 1 (1) N (%)
- Aspartate aminotransferase increased ([3]; Grade 4): 1 (1) N (%)
- Flushing ([3]; Grade 4): 1 (1) N (%)
- Hypertension ([3]; Grade 4): 1 (1) N (%)
- Neutrophil Count Decreased ([3]; Grade 4): 5 (6) N (%)
- Platelet Count Decreased ([3]; Grade 4): 11 (13) N (%)
- White Blood Cell Decreased ([3]; Grade 4): 3 (4) N (%)
- Acute kidney injury ([3]; Total): 1 (1) N (%)
- Alanine aminotransferase increased ([3]; Total): 1 (1) N (%)
- Anemia ([3]; Total): 2 (2) N (%)
- Aspartate aminotransferase increased ([3]; Total): 1 (1) N (%)
- Atrial fibrillation ([3]; Total): 1 (1) N (%)
- Bronchial infection ([3]; Total): 1 (1) N (%)
- Cognitive disturbance ([3]; Total): 1 (1) N (%)
- Confusion ([3]; Total): 1 (1) N (%)
- Dehydration ([3]; Total): 1 (1) N (%)
- Dizziness ([3]; Total): 1 (1) N (%)
- Dysphasia ([3]; Total): 1 (1) N (%)
- Fatigue ([3]; Total): 4 (5) N (%)
- Flushing ([3]; Total): 1 (1) N (%)
- Generalized muscle weakness ([3]; Total): 2 (2) N (%)
- Headache ([3]; Total): 1 (1) N (%)
- Hyperkalemia ([3]; Total): 1 (1) N (%)
- Hypertension ([3]; Total): 1 (1) N (%)
- Hypokalemia ([3]; Total): 1 (1) N (%)
- Hypotension ([3]; Total): 1 (1) N (%)
- Hypoxia ([3]; Total): 1 (1) N (%)
- Lymphocyte count decreased ([3]; Total): 4 (5) N (%)
- Nausea ([3]; Total): 2 (2) N (%)
- Neutrophil Count Decreased ([3]; Total): 8 (10) N (%)
- Platelet Count Decreased ([3]; Total): 15 (18) N (%)
- Rash maculo-papular ([3]; Total): 3 (4) N (%)
- Skin and subcutaneous tissue disorders ([3]; Total): 1 (1) N (%)
- Vomiting ([3]; Total): 1 (1) N (%)
- White Blood Cell Decreased ([3]; Total): 8 (10) N (%)
- well tolerated dose ([3]; with adjuvant TMZ): 17.2 mg/kg weekly
- well tolerated dose ([3]; with radiation and TMZ): 16 mg/kg weekly
- TrxR1 labeling with Iniparib-biotin after preincubation [4]: only a partial inhibition
